Laboratory results: ChEMBL document CHEMBL1201862, “PubChem BioAssay data set” (2004)
Calls of active or inactive are those of the source.

Tests used:
Estrogen receptor [1] = target: T1, Estrogen receptor (Homo sapiens, UniProt P03372); test: potentiators of ERα–SRC-1 coactivator binding, dose response, biochemical, TR-FRET, ERα LBD (AID 737)
T1 sequence (P03372 whole entry): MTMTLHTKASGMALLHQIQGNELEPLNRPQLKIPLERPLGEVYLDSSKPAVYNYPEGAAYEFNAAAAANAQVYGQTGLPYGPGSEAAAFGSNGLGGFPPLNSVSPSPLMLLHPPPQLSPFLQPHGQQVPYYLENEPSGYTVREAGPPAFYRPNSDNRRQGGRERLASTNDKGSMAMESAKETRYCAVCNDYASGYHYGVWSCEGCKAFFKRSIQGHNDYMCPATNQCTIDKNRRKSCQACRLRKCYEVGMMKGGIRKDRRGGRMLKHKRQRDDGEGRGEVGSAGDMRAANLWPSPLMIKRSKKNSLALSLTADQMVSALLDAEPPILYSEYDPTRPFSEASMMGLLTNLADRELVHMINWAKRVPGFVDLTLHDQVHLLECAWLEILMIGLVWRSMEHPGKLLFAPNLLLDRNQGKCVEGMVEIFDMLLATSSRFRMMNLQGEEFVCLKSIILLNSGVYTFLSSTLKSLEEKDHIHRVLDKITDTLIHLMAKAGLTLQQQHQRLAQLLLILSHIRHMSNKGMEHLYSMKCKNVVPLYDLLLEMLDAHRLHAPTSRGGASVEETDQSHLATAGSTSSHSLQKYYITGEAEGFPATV

[2] = target: T2, Endoribonuclease toxin MazF (Escherichia coli K-12, UniProt P0AE70); test: MazF toxin RNase activators, dose response, biochemical, fluorescence, single-stranded RNA substrate, uHTS hits (AID 588481); format: functional
T2 sequence (P0AE70 whole entry): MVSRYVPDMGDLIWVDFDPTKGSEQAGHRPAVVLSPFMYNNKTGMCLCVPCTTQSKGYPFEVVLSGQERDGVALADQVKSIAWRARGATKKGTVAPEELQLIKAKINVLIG

[3] = target: T2, Endoribonuclease toxin MazF; test: fluorescent RNA oligo signal without MazF, dose response, counter-screen for MazEF activator project, biochemical, fluorescence, single-stranded RNase substrate (AID 588502); format: functional
[4] = target: Peroxisome proliferator-activated receptor gamma/Nuclear receptor coactivator 1 (Homo sapiens, UniProt P37231); test: (§1) TR-FRET dose response biochemical High Throughput Screening assay for agonists of the steroid receptor coactivator 1 (SRC-1) recruitment by the peroxisome proliferator-activated receptor gamma (PPAR gamma): non-selective agonists. [Related pubchem assays (depositor defined):AID1300, AID1808, AID504735, AID631]; format: protein assay
[5] = target: Peroxisome proliferator-activated receptor gamma/Nuclear receptor coactivator 3 (Homo sapiens, UniProt P37231); test: as §1, with “3 (SRC-3)” for “1 (SRC-1)”, “assays: 1301 (Confirmation screen.), 1048 (Primary screen.)]” for “assays (depositor defined):AID1300, AID1808, AID504735, AID631]”; format: functional
[6] = Luminescence Cell-Based/Microorganism Confirmation at Dose of Inhibitors of Trypanosoma cruzi Infection. [Related pubchem assays: 1885, 1968 ]; format: functional
[7] = inhibitors of intracellular T. cruzi replication, confirmation, NIH3T3 host cells, beta-gal luminescence (AID 2044); format: functional, cell-based;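 further: intracellular parasites grown in NIH/3T3 mouse fibroblasts as host cells; luminescent beta-galactosidase reporter signal from transgenic T. cruzi replicating inside host cells; inhibitors lower the luminescence signal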
[8] = Luminescence Cell-Based Secondary HTS screen to identify cytotoxic compounds of NIH3T3 cells. [Related pubchem assays: 1885, 1968 ]; format: functional
[9] = target: Peroxisome proliferator-activated receptor gamma/Nuclear receptor coactivator 2 (Homo sapiens, UniProt P37231); test: TR-FRET dose response biochemical High Throughput Screening assay for agonists of the steroid receptor coactivator 2 (SRC-2) recruitment by the peroxisome proliferator-activated receptor gamma (PPAR gamma): non-selective agonists. [Related pubchem assays: 1297, 1032 ]; format: functional
[10] = cytotoxicity toward NIH3T3 fibroblasts, dose response, counter-screen, cell-based, ATP luminescence, mouse fibroblasts (AID 2010); format: functional;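 further: cells exposed to compound for about 90 hours before reading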
[11] = inhibitors of Trypanosoma cruzi host-cell infection, confirmation, beta-gal luminescence, NIH3T3 host cells (AID 2630); format: functional, cell-based; conditions: Mus musculus
[12] = target: Neuropeptide Y receptor type 2 (Homo sapiens, UniProt P49146); test: NPY-Y2 antagonist potency, selectivity check, dose response, counter-screen for NPY-Y1 antagonist project, cell-based (AID 1278); format: functional
[13] = target: Neuropeptide Y receptor type 1 (Homo sapiens, UniProt P25929); test: NPY-Y1 receptor antagonist potency, dose response, cell-based (AID 1277); format: functional
BJ [14] = test: cytotoxicity toward BJ-TERT fibroblasts, dose response, cell-based, RAS-independent, luminescence (AID 1933); format: functional; conditions: Homo sapiens
[15] = Luminescence Cell-Based Dose Response HTS to Identify Inhibitors of 5'UTR Stem-Loop Driven Prion Protein mRNA Translation in H4 Neuroglioblastoma Cells. [Related pubchem assays: 1827 (Project Summary), 1813 (Primary HTS)]; format: functional
[16] = target: T3, Heat shock factor protein 1 (Mus musculus, UniProt P38532); test: inhibition of MG132-induced HSE-luciferase signal, confirmation, cell-based, NIH3T3, luminescence, dose retest (AID 2382); format: functional;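 further: NIH3T3 fibroblasts with HSF1-driven luciferase reporter stressed by proteasome inhibitor MG132; luminescence from HSF1-driven luciferase expression after 8 hours of MG132 stress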
T3 sequence (P38532 whole entry): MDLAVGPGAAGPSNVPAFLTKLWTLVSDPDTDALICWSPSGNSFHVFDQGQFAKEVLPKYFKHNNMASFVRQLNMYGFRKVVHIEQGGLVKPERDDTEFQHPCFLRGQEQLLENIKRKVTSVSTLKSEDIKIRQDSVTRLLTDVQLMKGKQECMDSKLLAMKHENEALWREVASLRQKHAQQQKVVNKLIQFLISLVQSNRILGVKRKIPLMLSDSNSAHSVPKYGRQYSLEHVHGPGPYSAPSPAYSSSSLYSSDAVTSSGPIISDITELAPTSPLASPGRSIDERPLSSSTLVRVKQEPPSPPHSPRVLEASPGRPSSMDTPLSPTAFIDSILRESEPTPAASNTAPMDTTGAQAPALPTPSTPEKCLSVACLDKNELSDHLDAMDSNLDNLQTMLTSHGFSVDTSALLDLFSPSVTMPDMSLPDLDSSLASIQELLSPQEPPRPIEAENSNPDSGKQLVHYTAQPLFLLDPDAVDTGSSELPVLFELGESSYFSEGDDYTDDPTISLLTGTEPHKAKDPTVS

[17] = inhibitors of SNCA 5'UTR-driven reporter translation, confirmation, H4 neuroglioma cells, luminescence (AID 1988); format: functional, cell-based
BJ [18] = test: cells; format: functional, cell-based; conditions: Homo sapiens
[19] = target: Luciferin 4-monooxygenase (Photinus pyralis, UniProt P08659); test: firefly luciferase enzyme inhibitors, dose response, biochemical, luminescence (AID 1891)
[20] = Luminescence Cell-Based Dose Confirmation HTS to Identify Inhibitors of Platelet Dense Granule Release. [Related pubchem assays: 1663 (Primary HTS), 1678 (Summary of Project)]; format: functional
[21] = Luminescence-based counterscreen assay for KLF5 inhibitors: dose response cell-based high throughput screening assay to identify cytotoxic compounds using the IEC-6 intestinal epithelial cell line. [Related pubchem assays: 1700 (Primary screen.), 1834 (Confirmation screen.), 1858 (Summary AID.), 1905 (Counterscreen.)]; format: functional
BJ [22] = test: cytotoxicity toward BJ-TERT-LT-ST fibroblasts, dose response, cell-based, RAS-independent, luminescence (AID 1935); format: functional; conditions: Homo sapiens;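 further: BJ fibroblasts immortalized with TERT plus LT and ST oncogenes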
[23] = cytotoxicity toward DRD oncogenic fibroblasts, dose response, cell-based, non-viral oncogenic, luminescence (AID 1934); format: functional; conditions: Homo sapiens
HEK293 = test: inhibitors of LMP1-driven NF-kB reporter, dose response, cell-based, HEK293, luciferase, cherry-pick (AID 588343); format: functional; conditions: Homo sapiens
BJ [24] = test: cytotoxicity toward Ras-transformed BJeLR fibroblasts, dose response, cell-based, alamar blue fluorescence, cherrypicked samples (AID 2631); format: functional; conditions: Homo sapiens;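 further: confirmatory dose-response assay in RAS-dependent BJ fibroblasts engineered with TERT, LT and ST, with cytotoxicity read by fluorescence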
[25] = A549 cell cytotoxicity, dose response, cytotoxicity control, plate reader, cherry-pick, antagonist series (AID 743412); format: functional, cell-based
[26] = HepG2 cell cytotoxicity, dose response, cytotoxicity control, plate reader, cherry-pick, antagonist series (AID 743416); format: functional, cell-based
[27] = LGR2 antagonists, dose response, cell-based, HEK293, CRE-luciferase reporter, cherry pick, set 2 (AID 743343); format: functional;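 further: transfected cells were stimulated with diluted bursicon conditioned medium after compound addition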
[28] = MC4R antagonists, dose response, counter-screen for LGR2 antagonist project, cell-based, plate reader, cherry pick (AID 743444); format: functional;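 further: transfected HEK 293 cells stimulated with alpha-MSH peptide; potency of inhibitors of the alpha-MSH evoked signal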
[29] = target: T4, Oxysterols receptor LXR-beta (Homo sapiens, UniProt P55055); format: functional, cell-based;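 further: agonist activity at LXR measured by a cell-based luminescence readout across a dose range, run as a counterscreen for daf-12 agonists; HEK293 cells with Gal4-LXR fusion and GAL4-driven luciferase reporter; potency for activation of Gal4-LXR reporter so compounds are agonists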
T4 sequence (P55055 whole entry): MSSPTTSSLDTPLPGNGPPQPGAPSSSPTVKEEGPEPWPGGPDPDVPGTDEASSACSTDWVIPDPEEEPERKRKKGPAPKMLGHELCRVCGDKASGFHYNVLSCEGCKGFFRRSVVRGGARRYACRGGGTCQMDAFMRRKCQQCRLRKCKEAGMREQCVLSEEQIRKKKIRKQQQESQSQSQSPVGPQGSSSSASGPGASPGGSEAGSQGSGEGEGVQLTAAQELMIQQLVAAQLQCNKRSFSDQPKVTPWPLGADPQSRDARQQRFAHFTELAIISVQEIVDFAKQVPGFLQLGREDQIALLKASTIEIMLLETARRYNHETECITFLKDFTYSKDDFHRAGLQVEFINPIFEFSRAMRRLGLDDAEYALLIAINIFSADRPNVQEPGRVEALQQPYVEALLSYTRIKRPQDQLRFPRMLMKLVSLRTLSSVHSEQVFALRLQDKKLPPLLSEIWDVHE

[30] = A Cell Based Secondary Assay To Explore Cytotoxicity of Compounds that Sensitize Mycobacterium Tuberculosis to Beta-Lactam Antibiotics.; format: functional
Estrogen receptor [31] = target: T1, Estrogen receptor

Sequence of Luciferin 4-monooxygenase (P08659 whole entry): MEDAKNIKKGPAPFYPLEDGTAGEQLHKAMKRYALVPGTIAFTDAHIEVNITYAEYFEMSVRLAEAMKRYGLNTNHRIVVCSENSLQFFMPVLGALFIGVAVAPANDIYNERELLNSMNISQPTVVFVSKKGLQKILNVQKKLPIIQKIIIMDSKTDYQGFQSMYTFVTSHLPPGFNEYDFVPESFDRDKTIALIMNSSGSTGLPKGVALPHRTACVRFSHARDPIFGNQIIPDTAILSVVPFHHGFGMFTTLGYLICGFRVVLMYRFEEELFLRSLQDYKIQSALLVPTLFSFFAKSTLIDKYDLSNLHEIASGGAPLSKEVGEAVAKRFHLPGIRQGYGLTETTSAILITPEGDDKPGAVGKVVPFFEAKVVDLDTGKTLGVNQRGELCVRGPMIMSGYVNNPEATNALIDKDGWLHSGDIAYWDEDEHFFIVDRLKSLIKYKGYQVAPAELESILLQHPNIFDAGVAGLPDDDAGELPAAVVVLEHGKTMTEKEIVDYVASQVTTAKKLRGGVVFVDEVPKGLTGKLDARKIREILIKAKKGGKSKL
Sequence of Neuropeptide Y receptor type 1 (P25929 whole entry): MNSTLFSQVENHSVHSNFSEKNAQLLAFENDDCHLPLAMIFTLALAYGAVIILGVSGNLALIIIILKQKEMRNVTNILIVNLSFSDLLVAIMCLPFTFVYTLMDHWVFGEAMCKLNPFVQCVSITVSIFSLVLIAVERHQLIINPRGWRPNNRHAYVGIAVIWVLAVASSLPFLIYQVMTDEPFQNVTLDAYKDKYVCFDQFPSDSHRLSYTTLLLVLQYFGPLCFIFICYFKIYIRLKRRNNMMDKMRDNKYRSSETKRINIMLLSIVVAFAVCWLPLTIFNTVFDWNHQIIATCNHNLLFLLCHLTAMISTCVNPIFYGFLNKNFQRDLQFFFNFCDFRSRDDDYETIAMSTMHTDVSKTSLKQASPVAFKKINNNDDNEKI
Sequence of Peroxisome proliferator-activated receptor gamma/Nuclear receptor coactivator 1 (P37231 whole entry): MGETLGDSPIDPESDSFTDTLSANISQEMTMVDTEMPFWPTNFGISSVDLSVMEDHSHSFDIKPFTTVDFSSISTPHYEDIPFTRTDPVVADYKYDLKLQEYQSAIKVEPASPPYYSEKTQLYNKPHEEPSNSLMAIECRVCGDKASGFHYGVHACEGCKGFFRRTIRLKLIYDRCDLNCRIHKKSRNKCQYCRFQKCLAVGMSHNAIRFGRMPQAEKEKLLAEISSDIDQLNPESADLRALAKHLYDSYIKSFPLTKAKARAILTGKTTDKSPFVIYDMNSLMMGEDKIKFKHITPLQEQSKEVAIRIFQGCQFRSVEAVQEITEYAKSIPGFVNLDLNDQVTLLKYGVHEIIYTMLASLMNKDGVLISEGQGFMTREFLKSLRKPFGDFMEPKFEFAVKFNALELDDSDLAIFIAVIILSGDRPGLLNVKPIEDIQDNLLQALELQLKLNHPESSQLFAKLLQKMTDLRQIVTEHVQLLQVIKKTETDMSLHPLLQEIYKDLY
Sequence of Peroxisome proliferator-activated receptor gamma/Nuclear receptor coactivator 1 (Q15788 whole entry, further chain): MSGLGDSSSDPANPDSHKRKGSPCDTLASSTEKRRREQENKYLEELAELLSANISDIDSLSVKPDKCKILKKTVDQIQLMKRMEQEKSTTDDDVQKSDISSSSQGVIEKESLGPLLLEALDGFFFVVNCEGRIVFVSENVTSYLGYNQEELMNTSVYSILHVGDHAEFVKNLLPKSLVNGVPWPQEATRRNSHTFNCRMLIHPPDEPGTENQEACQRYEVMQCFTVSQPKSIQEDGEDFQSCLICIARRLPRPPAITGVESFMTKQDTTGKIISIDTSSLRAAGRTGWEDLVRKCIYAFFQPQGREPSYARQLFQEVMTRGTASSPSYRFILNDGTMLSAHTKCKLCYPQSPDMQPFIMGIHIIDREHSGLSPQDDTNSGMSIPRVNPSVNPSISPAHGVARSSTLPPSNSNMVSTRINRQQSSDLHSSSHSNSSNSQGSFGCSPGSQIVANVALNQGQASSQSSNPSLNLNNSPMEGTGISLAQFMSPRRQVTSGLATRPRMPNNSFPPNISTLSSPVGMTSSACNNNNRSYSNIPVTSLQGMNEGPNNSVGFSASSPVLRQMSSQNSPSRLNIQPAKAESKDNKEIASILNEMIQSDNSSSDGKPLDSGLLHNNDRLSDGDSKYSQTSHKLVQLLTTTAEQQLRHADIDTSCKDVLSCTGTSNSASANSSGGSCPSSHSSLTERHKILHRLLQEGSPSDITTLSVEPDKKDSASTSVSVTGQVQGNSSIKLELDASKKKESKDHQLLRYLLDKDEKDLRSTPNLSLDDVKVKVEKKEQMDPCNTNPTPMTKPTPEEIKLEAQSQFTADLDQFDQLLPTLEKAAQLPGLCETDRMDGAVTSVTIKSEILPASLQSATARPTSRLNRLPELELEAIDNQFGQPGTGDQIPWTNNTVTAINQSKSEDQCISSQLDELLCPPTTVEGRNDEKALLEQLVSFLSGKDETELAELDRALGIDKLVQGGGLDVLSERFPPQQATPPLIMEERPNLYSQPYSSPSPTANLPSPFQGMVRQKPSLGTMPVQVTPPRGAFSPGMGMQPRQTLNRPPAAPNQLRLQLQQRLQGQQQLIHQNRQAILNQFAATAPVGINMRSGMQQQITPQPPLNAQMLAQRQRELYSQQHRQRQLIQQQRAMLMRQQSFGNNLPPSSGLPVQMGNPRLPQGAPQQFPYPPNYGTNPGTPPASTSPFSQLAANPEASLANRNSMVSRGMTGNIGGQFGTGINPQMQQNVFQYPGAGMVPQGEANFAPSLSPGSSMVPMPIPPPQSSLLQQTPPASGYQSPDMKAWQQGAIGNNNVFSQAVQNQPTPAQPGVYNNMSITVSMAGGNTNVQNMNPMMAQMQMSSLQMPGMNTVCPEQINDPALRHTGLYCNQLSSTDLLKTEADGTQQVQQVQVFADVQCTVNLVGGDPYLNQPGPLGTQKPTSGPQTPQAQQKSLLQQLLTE
Sequence of Peroxisome proliferator-activated receptor gamma/Nuclear receptor coactivator 3 (P37231 whole entry): as the sequence (P37231 whole entry) above
Sequence of Peroxisome proliferator-activated receptor gamma/Nuclear receptor coactivator 3 (Q9Y6Q9 whole entry, further chain): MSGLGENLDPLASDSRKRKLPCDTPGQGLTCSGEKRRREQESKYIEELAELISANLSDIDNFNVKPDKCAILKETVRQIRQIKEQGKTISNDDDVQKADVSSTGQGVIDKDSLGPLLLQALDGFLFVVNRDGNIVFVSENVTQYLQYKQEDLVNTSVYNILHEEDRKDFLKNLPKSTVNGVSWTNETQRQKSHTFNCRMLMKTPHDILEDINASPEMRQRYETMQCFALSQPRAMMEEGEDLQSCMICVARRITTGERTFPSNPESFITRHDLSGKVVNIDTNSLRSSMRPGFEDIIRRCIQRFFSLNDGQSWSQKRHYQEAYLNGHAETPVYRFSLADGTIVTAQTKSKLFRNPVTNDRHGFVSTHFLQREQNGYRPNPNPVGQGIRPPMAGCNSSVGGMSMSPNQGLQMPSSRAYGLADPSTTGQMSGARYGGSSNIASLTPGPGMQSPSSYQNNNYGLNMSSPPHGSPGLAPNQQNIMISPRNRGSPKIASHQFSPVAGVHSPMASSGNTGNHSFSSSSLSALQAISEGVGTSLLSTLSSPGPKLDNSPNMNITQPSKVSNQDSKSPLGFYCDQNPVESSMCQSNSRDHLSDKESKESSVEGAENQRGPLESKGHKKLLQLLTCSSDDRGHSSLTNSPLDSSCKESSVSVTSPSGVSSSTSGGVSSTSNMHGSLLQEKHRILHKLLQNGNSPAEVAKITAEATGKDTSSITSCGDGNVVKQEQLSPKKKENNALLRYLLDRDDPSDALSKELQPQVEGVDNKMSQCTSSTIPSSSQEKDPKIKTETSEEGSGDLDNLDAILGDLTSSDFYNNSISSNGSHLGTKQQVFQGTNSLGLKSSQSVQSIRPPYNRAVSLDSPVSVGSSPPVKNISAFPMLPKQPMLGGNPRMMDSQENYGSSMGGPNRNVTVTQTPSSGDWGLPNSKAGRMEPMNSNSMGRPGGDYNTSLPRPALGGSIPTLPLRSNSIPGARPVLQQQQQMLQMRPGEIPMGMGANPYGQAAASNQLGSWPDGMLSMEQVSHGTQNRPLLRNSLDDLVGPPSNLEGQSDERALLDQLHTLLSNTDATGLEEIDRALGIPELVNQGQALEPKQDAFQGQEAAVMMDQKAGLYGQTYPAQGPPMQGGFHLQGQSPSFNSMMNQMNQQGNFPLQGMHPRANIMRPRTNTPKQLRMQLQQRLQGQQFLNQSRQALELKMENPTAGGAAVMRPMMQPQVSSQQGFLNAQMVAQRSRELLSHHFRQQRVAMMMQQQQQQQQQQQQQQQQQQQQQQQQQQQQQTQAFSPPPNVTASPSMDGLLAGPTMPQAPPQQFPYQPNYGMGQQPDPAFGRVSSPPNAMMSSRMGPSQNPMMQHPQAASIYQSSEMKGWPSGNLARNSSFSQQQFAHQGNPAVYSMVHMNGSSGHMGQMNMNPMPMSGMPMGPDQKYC

SMILES: CCc1ccc2nc(SCC(=O)N3CC(=O)Nc4ccccc43)c(C#N)cc2c1
- EC50 (Estrogen receptor [1]): 32.9 µM (not active)
- EC50 [2]: > 99 µM (inactive)
- EC50 [3]: > 99 µM (inactive)

SMILES: COc1cc(C(=O)NCCC(C)C)ccc1OCc1ccc(Cl)cc1Cl
- EC50 [4]: > 79.4 µM (inactive)
- EC50 [5]: > 79.4 µM (not active)
- EC50 [6]: 4.43 µM (inconclusive)
- EC50 [7]: 1.34 µM (active)
- EC50 [8]: > 195 µM (not active)
- EC50 [9]: > 79.4 µM (not active)
- EC50 [10]: > 30 µM (not active)
- EC50 [11]: 4.43 µM (active)

SMILES: CC(C)(C)NC(=O)c1oc2ccccc2c1COc1ccccc1
- IC50 [12]: > 35 µM (not active)
- IC50 [13]: 18.9 µM (not active)

SMILES: CCNC(S)=NNC(=O)c1cc(-c2ccc(OCC)cc2)nc2ccccc12
- EC50 (BJ [14]): 8.23 µM (inconclusive)
- EC50 [15]: 16.1 µM (active)
- EC50 [16]: 19 µM (active)
- EC50 [17]: 10.4 µM (active)
- EC50 (BJ [18]): 3.3 µM (active)
- EC50 [19]: < 88 nM (active)
- EC50 [20]: 1.08 µM (active)
- IC50 [21]: > 39.8 µM (not active)
- EC50 (BJ [22]): > 150 µM (not active)
- EC50 [23]: 11.7 µM (active)
- AC50 (HEK293): 1.7 µM (active)
- EC50 (BJ [24]): > 133 µM (inactive)
- AC50 [25]: > 52 µM (inactive)
- AC50 [26]: 49.6 µM (active)
- AC50 [27]: 3.19 µM (active)
- AC50 [28]: 4.32 µM (active)
- EC50 [29]: > 67.5 µM (inactive)

SMILES: COC(=O)/C(=C\Nc1ccc(Cl)c2ccccc12)c1ncc(C(F)(F)F)cc1Cl
- CC50 [30]: > 40 µM (active)
- IC50 (Estrogen receptor [31]): > 50 µM (not active)
